Key:
Type in all cases: physicochemical
[1] = storage at 20% relative humidity for 48 hours (DVS, DSC, PSD, SEM); conditions: for Particle Size, cumulative distribution Q3 X10 / Particle Size, cumulative distribution Q3 X50 / Particle Size, cumulative distribution Q3 X90: dry Sympatec PSD, post-storage sample; for DSC trace of the stored sample / variation of particle size after storage (PSD): post-storage; for weight change during storage (DVS mass plot): storage at 20% RH for 48 hours
Procedure: In order to evaluate the effect of humidity on prolonged storage processed BDP hydrate was subjected to 20% relative humidity (RH) for 48 hours.
The sample recovered after storage was analysed by DSC, TGA, PSD and SEM.
In order to evaluate the effect of humidity on prolonged storage anhydrous BDP was subjected to 20% relative humidity (RH) for 48 hours. The pre-storage sample was characterized by TGA, DSC, PSD and SEM analysis.
The sample recovered after storage was analyzed by DSC, PSD and SEM.

[2] = dry Sympatec PSD analysis (particle size distribution); conditions: for Particle Size, cumulative distribution Q3 X10 / Particle Size, cumulative distribution Q3 X50 / Particle Size, cumulative distribution Q3 X90: dry Sympatec PSD, after isolation / pre-storage sample
From the text: Particle size or particle diameter as used herein can be suitably determined by laser diffraction based methods, for example as described in ISO Standard 13320-1. Laser diffraction particle sizing apparatus such as the Malvern Mastersizer 2000™ can be used.

[3] = microscope imaging / SEM of particles; conditions: for largest particles or clusters observed (microscope imaging / SEM): after supercritical CO2 isolation; for particle size in suspension prior to isolation (microscope imaging): partially agglomerated particles, before supercritical CO2 isolation
[4] = after supercritical CO2 isolation

Particle Size, cumulative distribution Q3 X10 ([1]; 20% RH for 48 hours) [μ]	Particle Size, cumulative distribution Q3 X50 ([1]; 20% RH for 48 hours) [μ]	Particle Size, cumulative distribution Q3 X90 ([1]; 20% RH for 48 hours) [μ]	DSC trace of the stored sample ([1]; 20% RH for 48 hours)	time to steady state in DVS mass plot ([1]; storage at 20% RH)	Particle Size, cumulative distribution Q3 X10 [2] [μ]	Particle Size, cumulative distribution Q3 X50 [2] [μ]	Particle Size, cumulative distribution Q3 X90 [2] [μ]	largest particles or clusters observed (microscope imaging / SEM) [3]	particle size in suspension prior to isolation (microscope imaging) [3]	largest particles by dry Sympatec PSD analysis ([2]; after supercritical CO2 isolation, bimodal distribution)	size of larger clusters or agglomerates by dry Sympatec PSD analysis [2, 4] [μm]	size of most particles by dry Sympatec PSD analysis [2, 4] [μm]	Structure (SMILES)	stability on prolonged storage ([1]; 20% RH for 48 hours, compared with anhydrous BDP)	variation of particle size after storage (PSD) ([1]; 20% RH for 48 hours)	weight change during storage (DVS mass plot) [1]
0.51	1.37	2.95	no variation in the thermal behavior	about 1500 minutes	0.51	1.35	3.17	–	–	–	–	–	CCC(=O)OCC(=O)[C@@]1(OC(=O)CC)[C@@H](C)C[C@H]2[C@@H]3CCC4=CC(=O)C=C[C@]4(C)[C@@]3(Cl)[C@@H](O)C[C@@]21C.O [BDP hydrate]	higher stability on prolonged storage than anhydrous BDP	no significant variation of particle size	considerable weight loss due to partial dehydration
–	–	–	–	–	1.26	12.58	61.27	up to 100 μm	up to 5 μm	up to 150 μm	–	–	CCC(=O)OCC(=O)[C@@]1(OC(=O)CC)[C@@H](C)C[C@H]2[C@@H]3CCC4=CC(=O)C=C[C@]4(C)[C@@]3(Cl)[C@@H](O)C[C@@]21C [Comparative Example 1]	–	–	–
–	–	–	–	–	0.84	3.58	8.76	up to 10 μm	up to 5 μm	–	> 20	~4	CCC(=O)OCC(=O)[C@@]1(OC(=O)CC)[C@@H](C)C[C@H]2[C@@H]3CCC4=CC(=O)C=C[C@]4(C)[C@@]3(Cl)[C@@H](O)C[C@@]21C [Comparative Example 2]	–	–	–
0.42	1.07	2.10	formation of BDP hydrate	–	0.43	1.10	2.24	–	–	–	–	–	CCC(=O)OCC(=O)[C@@]1(OC(=O)CC)[C@@H](C)C[C@H]2[C@@H]3CCC4=CC(=O)C=C[C@]4(C)[C@@]3(Cl)[C@@H](O)C[C@@]21C [anhydrous BDP, anhydrous beclomethasone diproprionate]	–	no significant variation of particle size	considerable weight changes
